# Laboratory results: patent US8067447B2, “Modulators of glucocorticoid receptor, AP-1, and/or NF-κB activity and use thereof” (Bristol-Myers Squibb Company, priority 2006, dated 2011)
# Key:
# [1] = target: T1, human glucocorticoid receptor (Homo sapiens, UniProt P04150); experiment: Glucocorticoid Receptor Binding Assay (I), fluorescence polarization competitor kit (Fluormone GS Red); details: purified human recombinant full-length GR 2 nM, 1 nM Fluormone GS Red, FP; read-out: GR (Ki, nM) (GR Binding Assay (I))
# T1 construct: purified human recombinant full-length glucocorticoid receptor (2 nM); purchased Invitrogen Part #2893
# T1 sequence (P04150 1-777): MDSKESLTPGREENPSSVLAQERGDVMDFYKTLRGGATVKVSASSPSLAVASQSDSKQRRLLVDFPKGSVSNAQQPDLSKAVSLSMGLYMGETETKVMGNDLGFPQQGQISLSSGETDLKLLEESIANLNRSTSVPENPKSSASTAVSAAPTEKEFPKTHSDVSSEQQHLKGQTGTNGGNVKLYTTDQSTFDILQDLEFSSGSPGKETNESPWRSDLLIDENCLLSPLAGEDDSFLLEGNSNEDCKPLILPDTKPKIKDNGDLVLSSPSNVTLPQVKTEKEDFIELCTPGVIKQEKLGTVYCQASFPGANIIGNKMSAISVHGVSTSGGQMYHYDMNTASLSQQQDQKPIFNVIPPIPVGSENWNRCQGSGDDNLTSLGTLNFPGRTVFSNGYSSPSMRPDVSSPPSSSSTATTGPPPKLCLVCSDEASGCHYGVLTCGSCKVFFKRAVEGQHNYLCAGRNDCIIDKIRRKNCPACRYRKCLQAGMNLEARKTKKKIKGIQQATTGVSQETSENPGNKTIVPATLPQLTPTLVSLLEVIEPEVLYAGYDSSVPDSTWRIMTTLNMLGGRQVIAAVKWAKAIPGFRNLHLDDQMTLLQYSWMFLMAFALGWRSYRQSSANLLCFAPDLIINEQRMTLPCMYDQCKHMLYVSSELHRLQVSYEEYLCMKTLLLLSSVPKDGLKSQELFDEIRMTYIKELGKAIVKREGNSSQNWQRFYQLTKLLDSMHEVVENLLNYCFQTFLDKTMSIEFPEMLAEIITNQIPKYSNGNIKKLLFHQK
# Method: Briefly, purified human recombinant full-length glucocorticoid receptor (2 nM) was mixed with fluorescently labeled glucocorticoid (1 nM Fluormone GS Red) in the presence or absence of test compound. After two hour incubation at room temperature in the dark, the fluorescence polarization (FP) of the samples was measured. […] Test compounds were analyzed in the concentration range from 8.5E-05 μM to 5 μM.
# [2] = tested on: AP-1 induced transcriptional activity; experiment: Cellular Transrepressional Assay (AP-1 luciferase reporter in A549 cells, PMA-activated); assay type: cell-based; details: Homo sapiens, A549, 7 h, A549 cells with 7x AP-1 luciferase reporter, 10 ng/ml PMA, read-out: AP-1 (EC50, nM) (Cellular Transrepression Assay)
# Method: To measure the ability of test molecules to inhibit AP-1 induced transcriptional activity an A549 cell was utilized which was stably transfected with a plasmid containing 7× AP-1 DNA binding sites (pAP-1-Luc plasmid, Stratagene Co. La Jolla, Calif.) followed by the gene for luciferase. Cells were activated with 10 ng/ml of […] (PMA) plus or minus test molecules for 7 hours. After 7 hours a luciferase reagent was added to measure luciferase enzymatic activity in the cell. After a 10 minute incubation of luciferase reagent with cells, luminescence was measured in a TopCount luminescence counter. Repression of AP-1 activity was calculated as the percentage decrease in the signal induced by PMA alone. Test molecules were analyzed in the concentration range from 0.1 nM to 40 μM. EC50s were determined by using standard curve fitting methods such as Excel fit (Microsoft Co.).
Structure (SMILES),Ki [1] [nM],EC50 [2] [nM]
"CN1CCC(n2ncc3cc(C(c4ccccc4)C(C)(C)C(=O)Nc4nccs4)ccc32)CC1 (centres unmarked) [Example 59, 2,2-dimethyl-3-(1-(1-methylpiper-idin-4-yl)-1H-indazol-5-yl)-3-phenyl-N-(thiazol-2-yl)propanamide]",543,> 10000
"CC(C)(C(=O)Nc1nccs1)C(c1ccccc1)c1ccc2[nH]c(-c3ccncc3)cc2c1 (centres unmarked) [Example 115, 2,2-dimethyl-3-phenyl-3-(2-(pyridin-4-yl)-1H-indol-5-yl)-N-(thiazol-2-yl)propanamide]",26,3640
"CC(C)(C(=O)Nc1nncs1)C(c1ccccc1)c1ccc2c(cnn2-c2ccc(O)cc2)c1 (centres unmarked) [Example 84, 3-(1-(4-hydroxyphenyl)-1H-indazol-5-yl)-2,2-dimethyl-3-phenyl-N-(1,3,4-thiadiazol-2-yl)propanamide]",7.2,306
"CC(C)(C(=O)Nc1nnc(C2CC2)s1)C(c1ccccc1)c1ccc2c(cnn2-c2ccc(F)cc2)c1 (centres unmarked) [Example 21, N-(5-cyclopropyl-1,3,4-thiadiazol-2-yl)-3-(1-(4-fluorophenyl)-1H-indazole-5-yl)-2,2-dimethyl-3-phenylpropanamide]",12,155
"Cc1nnc(NC(=O)C(C)(C)C(c2ccccc2)c2ccc3c(cnn3-c3ccc(F)cc3)c2)s1 (centres unmarked) [Example 18, 3-(1-(4-fluorophenyl)-1H-indazol-5-yl)-2,2-dimethyl-N-(5-methyl-1,3,4-thiadiazol-2-yl)-3-phenylpropanamide]",21,141
"CC(C)(C(=O)NS(C)(=O)=O)C(c1ccccc1)c1ccc2c(cnn2-c2ccc(F)cc2)c1 (centres unmarked) [Example 5, 3-(1-(4-fluorophenyl)-1H-indazol-5-yl)-2,2-dimethyl-N-(methylsulfonyl)-3-phenylpropanamide]",7,1330
"CC(C)(C(=O)Nc1nncs1)C(c1ccccc1)c1ccc2[nH]c(-c3nccs3)cc2c1 (centres unmarked) [Example 118, 2,2-dimethyl-3-phenyl-N-(1,3,4-thiadiazol-2-yl)-3-(2-(thiazol-2-yl)-1H-indol-5-yl)propanamide]",95,2930
"CC(C)(C(=O)Nc1nncs1)C(c1ccccc1)c1ccc2c(cnn2CCCCO)c1 (centres unmarked) [Example 76, 3-(1-(4-hydroxybutyl)-1H-indazol-5-yl)-2,2-dimethyl-3-phenyl-N-(1,3,4-thiadiazol-2-yl)propanamide]",9.3,267
COCCCn1ncc2cc(C(c3ccccc3)C(C)(C)C(=O)Nc3nncs3)ccc21 (centres unmarked) [Example 71],28,> 10000
"CCOC(=O)c1nnc(NC(=O)C(C)(C)C(c2ccccc2)c2ccc3c(cnn3-c3ccc(F)cc3)c2)s1 (centres unmarked) [Example 10, ethyl 5-(3-(1-(4-fluorophenyl)-1H-indazol-5-yl)-2,2-dimethyl-3-phenylprop-anamido)-1,3,4-thiadiazole-2-carboxylate]",227,3520
"CC(C)(C(=O)Nc1nncs1)C(c1ccccc1)c1ccc2c(cnn2Cc2ccccc2)c1 (centres unmarked) [Example 72, 3-(1-benzyl-1H-indazol-5-yl)-2,2-dimethyl-3-phenyl-N-(1,3,4-thiadiazol-2-yl)propanamide]",14,1930
"CC(C)(C(=O)Nc1nccs1)C(c1ccccc1)c1ccc2c(cnn2C2CCOCC2)c1 (centres unmarked) [Example 58, 2,2-dimethyl-3-phenyl-3-(1-(tetrahydro-2H-pyran-4-yl)-1H-indazol-5-yl)-N-(thiazol-2-yl)propanamide]",10,177
CC(C)n1cc2cc(C(c3ccccc3)C(C)(C)C(=O)Nc3nccs3)ccc2n1 (centres unmarked) [Example 62],9,6150
"CC(C)(C(=O)NC1CCCC1)C(c1ccccc1)c1ccc2c(cnn2-c2ccc(F)cc2)c1 (centres unmarked) [Example 3, N-cyclopentyl-3-(1-(4-fluorophenyl)-1H-indazol-5-yl)-2,2-dimethyl-3-phenylpropanamide]",6.9,199
"Cc1cnc(NC(=O)C(C)(C)C(c2ccccc2)c2ccc3c(cnn3-c3ccc(F)cc3)c2)s1 (centres unmarked) [Example 17, 3-(1-(4-fluorophenyl)-1H-indazol-5-yl)-2,2-dimethyl-N-(5-methylthiazol-2-yl)-3-phenylpropanamide]",11,49
"CCc1nnc(NC(=O)C(C)(C)C(c2ccccc2)c2ccc3c(cnn3-c3ccc(F)cc3)c2)s1 (centres unmarked) [Example 20, N-(5-ethyl-1,3,4-thiadiazol-2-yl)-3-(1-(4-fluorophenyl)-1H-indazol-5-yl)-2,2-dimethyl-3-phenylpropanamide]",10,> 10000
"Cc1nc(NC(=O)C(C)(C)C(c2ccccc2)c2ccc3c(cnn3-c3ccc(F)cc3)c2)sc1C (centres unmarked) [Example 24, N-(4,5-dimethylthiazol-2-yl)-3-(1-(4-fluorophenyl)-1H-indazol-5-yl)-2,2-dimethyl-3-phenylpropanamide]",28,> 10000
"CC(C)(C(=O)Nc1cc(O)[nH]n1)C(c1ccccc1)c1ccc2c(cnn2-c2ccc(F)cc2)c1 (centres unmarked) [Example 15, 3-(1-(4-fluorophenyl)-1H-indazol-5-yl)-N-(5-hydroxy-1H-pyrazol-3-yl)-2,2-dimethyl-3-phenylpropanamide]",318,> 10000
"CC(C)(C(=O)Nc1nncs1)C(c1ccccc1)c1ccc2c(cnn2CS(C)(=O)=O)c1 (centres unmarked) [Example 64, 2,2-dimethyl-3-(1-(methylsulfonylmethyl)-1H-indazol-5-yl)-3-phenyl-N-(1,3,4-thiadiazol-2-yl)propanamide]",65,> 10000
"CC(C)(C(=O)Nc1nccs1)C(c1ccccc1)c1ccc2c(cnn2-c2ccncc2)c1 (centres unmarked) [Example 81, 2,2-dimethyl-3-phenyl-3-(1-(pyridin-4-yl)-1H-indazol-5-yl)-N-(thiazol-2-yl)propanamide]",11,1290
"COc1ccc(-n2ncc3cc(C(c4ccccc4)C(C)(C)C(=O)Nc4nncs4)ccc32)cc1 (centres unmarked) [Example 83, 3-(1-(4-methoxyphenyl)-1H-indazol-5-yl)-2,2-dimethyl-3-phenyl-N-(1,3,4-thiadiazol-2-yl)propanamide]",8.8,230
"CC(C)(C(=O)Nc1n[nH]cc1C#N)C(c1ccccc1)c1ccc2c(cnn2-c2ccc(F)cc2)c1 (centres unmarked) [Example 16, N-(4-cyano-1H-pyrazol-3-yl)-3-(1-(4-fluorophenyl)-1H-indazol-5-yl)-2,2-dimethyl-3-phenylpropanamide]",163,> 10000
"CC(C)(C(=O)Nc1nnn[nH]1)C(c1ccccc1)c1ccc2c(cnn2-c2ccc(F)cc2)c1 (centres unmarked) [Example 14, 3-(1-(4-fluorophenyl)-1H-indazol-5-yl)-2,2-dimethyl-3-phenyl-N-(1H-tetrazol-5-yl)propanamide]",17,> 10000
"CC(C)(C(=O)Nc1nccs1)C(c1ccccc1)c1cnc2c(cnn2-c2ccccc2)c1 (centres unmarked) [Example 162, 2,2-dimethyl-3-phenyl-3-(1-phenyl-1H-pyrazolo[3,4-b]pyridin-5-yl)-N-(thiazol-2-yl)propanamide]",3.6,3560
"CC(C)(C(=O)Nc1sccc1C#N)C(c1ccccc1)c1ccc2c(cnn2-c2ccc(F)cc2)c1 (centres unmarked) [Example 19, N-(3-cyanothiophen-2-yl)-3-(1-(4-fluorophenyl)-1H-indazol-5-yl)-2,2-dimethyl-3-phenylpropanamide]",47,> 10000
